Earlier results, collected in patent publication US12622888B2, “Pharmaceutical composition and application thereof” (priority 2019, dated 2026).

System: infarct size of the heart
Conditions: prior art CN2011102229806, FIG. 3

CC(C)=CCC[C@](C)(O[C@@H]1O[C@H](CO)[C@@H](O)[C@H](O)[C@H]1O)[C@H]1CC[C@]2(C)[C@@H]1[C@H](O)C[C@@H]1[C@@]3(C)CC[C@H](O)C(C)(C)[C@@H]3[C@@H](O[C@@H]3O[C@H](CO)[C@@H](O)[C@H](O)[C@H]3O)C[C@]12C [ginsenoside Rg1]
rank order of the effect on reducing the infarct size: salvianolic acid B <ginsenoside Rg1<<salvianolic acid B: ginsenoside Rg1=2:5 group

O=C(/C=C/c1ccc(O)c2c1[C@H](C(=O)O[C@H](Cc1ccc(O)c(O)c1)C(=O)O)[C@@H](c1ccc(O)c(O)c1)O2)O[C@H](Cc1ccc(O)c(O)c1)C(=O)O [salvianolic acid B]
rank order of the effect on reducing the infarct size: salvianolic acid B <ginsenoside Rg1<<salvianolic acid B: ginsenoside Rg1=2:5 group
